# Data taken from patent publication US10202339B2, “Therapeutic compounds and compositions” (AGIOS PHARMACEUTICALS, INC., priority 2012, dated 2019).
# Target: IDH1 R132H (Homo sapiens (Human), UniProt O75874, R132H)
# Assay: In vitro assay for IDH1m (R132H) inhibitors, NADPH depletion with resazurin/resorufin detection
# Type: biochemical
# Details: IDH1 R132H enzyme, 50 minutes at room temperature; read-out: IDH R132H IC50
# Description: Assays were conducted in a volume of 76 μl assay buffer (150 mM NaCl, 10 mM MgCl2, 20 mM Tris pH 7.5, 0.03% bovine serum albumin) as follows in a standard 384-well plate: To 25 ul of substrate mix (8 uM NADPH, 2 mM aKG), 1 μl of test compound was added in DMSO. The plate was centrifuged briefly, and then 25 μl of enzyme mix was added (0.2 μg/ml IDH1 R132H) followed by a brief centrifugation and shake at 100 RPM. The reaction was incubated for 50 minutes at room temperature, then 25 μl of detection mix (30 μM resazurin, […]) was added and the mixture further incubated for 5 minutes at room temperature. The conversion of resazurin to resorufin was detected by fluorescent spectroscopy at Ex544 Em590 c/o 590.
# Representative compounds of formula (I) set forth in Tables 1 and 2 were tested in this assay and the results are set forth below in Table 4.
# Chain of IDH1 R132H (O75874 whole entry R132H): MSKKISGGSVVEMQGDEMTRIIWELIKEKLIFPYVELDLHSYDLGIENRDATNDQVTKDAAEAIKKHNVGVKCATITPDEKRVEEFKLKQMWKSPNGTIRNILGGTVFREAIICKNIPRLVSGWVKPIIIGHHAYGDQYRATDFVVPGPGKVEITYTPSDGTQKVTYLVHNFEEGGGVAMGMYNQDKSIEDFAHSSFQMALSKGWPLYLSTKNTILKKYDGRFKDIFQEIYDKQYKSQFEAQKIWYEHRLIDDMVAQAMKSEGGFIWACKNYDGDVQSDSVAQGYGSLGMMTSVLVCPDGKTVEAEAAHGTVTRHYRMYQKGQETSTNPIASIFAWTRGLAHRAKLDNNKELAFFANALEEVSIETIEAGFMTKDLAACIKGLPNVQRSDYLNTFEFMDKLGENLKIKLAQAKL
row,Molecule,IC50
1,Cc1ccc(NC(=O)Nc2ccc(C(C)C)cc2)cc1S(=O)(=O)Nc1ccc(Cl)cc1 [Compound 254],1000 to 10000 nM
2,CCc1ccc(NC(=O)Nc2ccc(C)c(S(=O)(=O)Nc3ccc(Cl)cc3)c2)cc1 [Compound 252],1000 to 10000 nM
3,"Cc1ccc(NC(=O)Nc2cccc(C(F)(F)F)c2)cc1S(=O)(=O)Nc1ccc2c(c1)ncn2C [Compound 320, 2-methyl-N-(1-methyl-1H-benzo[d]imidazol-5-yl)-5-(3-(3-(trifluoromethyl)phenyl)ureido)benzene sulfonamide]",1000 to 10000 nM
4,COC(=O)c1cccc(NC(=O)Nc2ccc(C)c(S(=O)(=O)Nc3ccc(Cl)cc3)c2)c1 [Compound 276],1000 to 10000 nM
5,CCc1cccc(CC)c1NC(=O)Nc1ccc(C)c(S(=O)(=O)Nc2ccc(Cl)cc2)c1 [Compound 261],1000 to 10000 nM
6,Cc1ccc(NC(=O)Nc2cccc(S(=O)(=O)Nc3ccc(Cl)cc3)c2)cc1S(=O)(=O)Nc1ccccc1 [Compound 335],1000 to 10000 nM
7,Cc1ccc(NC(=O)Nc2ccsc2)cc1S(=O)(=O)Nc1ccc(Cl)cc1 [Compound 289],1000 to 10000 nM
8,Cc1ccc(NC(=O)Nc2cccc(C(F)(F)F)c2)cc1S(=O)(=O)N1CCNCC1 [Compound 323],1000 to 10000 nM
9,COc1cc([N+](=O)[O-])ccc1NC(=O)Nc1ccc(C)c(S(=O)(=O)Nc2ccc(Cl)cc2)c1 [Compound 272],1000 to 10000 nM
10,Cc1ccc(NC(=O)Nc2ccc(Cl)c([N+](=O)[O-])c2)cc1S(=O)(=O)Nc1ccc(Cl)cc1 [Compound 242],1000 to 10000 nM
11,Cc1ccc(NC(=O)Nc2ccc3ccccc3c2)cc1S(=O)(=O)Nc1ccc(Cl)cc1 [Compound 287],1000 to 10000 nM
12,CC(=O)Nc1ccc(NS(=O)(=O)c2cc(NC(=O)Nc3ccc(C(F)(F)F)cc3)ccc2C)cc1 [Compound 329],1000 to 10000 nM
13,Cc1ccc(NC(=O)NCc2ccc(Cl)cc2Cl)cc1S(=O)(=O)Nc1ccc(Cl)cc1 [Compound 280],1000 to 10000 nM
14,CC(=O)n1ccc2cc(NS(=O)(=O)c3cc(NC(=O)Nc4cccc(C(F)(F)F)c4)ccc3C)ccc21 [Compound 318],1000 to 10000 nM
15,Cc1ccc(NC(=O)Nc2ccccc2Cc2ccccc2)cc1S(=O)(=O)Nc1ccc(Cl)cc1 [Compound 285],1000 to 10000 nM
16,Cc1ccc(NC(=O)Nc2ccc(Cl)cc2)cc1S(=O)(=O)Nc1ccccc1 [Compound 205],1000 to 10000 nM
17,Cc1ccc(NC(=O)Nc2cccc(C(F)(F)F)c2)cc1S(=O)(=O)Nc1ccc(OS(C)(=O)=O)cc1 [Compound 306],1000 to 10000 nM

row,Molecule,IC50
1,Cc1ccc(NC(=O)Nc2ccc(I)cc2)cc1S(=O)(=O)Nc1ccc(Cl)cc1 [Compound 220],1000 to 10000 nM
2,Cc1ccc(NC(=O)Nc2cccc([N+](=O)[O-])c2)cc1S(=O)(=O)Nc1ccc(Cl)cc1 [Compound 275],1000 to 10000 nM
3,Cc1ccc(NC(=O)N[C@@H](C)c2cccc3ccccc23)cc1S(=O)(=O)Nc1ccc(Cl)cc1 [Compound 288],1000 to 10000 nM
4,N-(1H-indol-7-yl)-2-methyl-5-(3-(3-(trifluoromethyl)phenyl)ureido)benzenesulfonamide [Compound 317],1000 to 10000 nM
5,Cc1ccc(NC(=O)Nc2cc(Cl)c(Cl)cc2Cl)cc1S(=O)(=O)Nc1ccc(Cl)cc1 [Compound 246],1000 to 10000 nM
6,"Cc1ccc(NC(=O)Nc2cccc(C(F)(F)F)c2)cc1S(=O)(=O)Nc1ccc2c(c1)OCCO2 [Compound 315, N-(2,3-dihydrobenzo[b][1,4]dioxin-6-yl)-2-methyl-5-(3-(3(trifluoromethyl)phenyl)ureido)benzenesulfonamide]",1000 to 10000 nM
7,N-(1H-benzo[d]imidazol-7-yl)-2-methyl-5-(3-(3-(trifluoromethyl)phenyl)ureido)benzenesulfonamide [Compound 319],1000 to 10000 nM
8,Cc1ccc(CNC(=O)Nc2ccc(C)c(S(=O)(=O)Nc3ccc(Cl)cc3)c2)cc1 [Compound 283],1000 to 10000 nM
9,Cc1ccc(NC(=O)Nc2cccc(C(F)(F)F)c2)cc1S(=O)(=O)Nc1cccc2ncccc12 [Compound 321],1000 to 10000 nM
10,Cc1ccc(NC(=O)Nc2ccc3c(c2)CCO3)cc1S(=O)(=O)Nc1ccc(Cl)cc1 [Compound 291],1000 to 10000 nM
11,Cc1ccc(NC(=O)Nc2cccc(S(=O)(=O)Nc3ccccc3)c2)cc1S(=O)(=O)Nc1ccc(Cl)cc1 [Compound 334],1000 to 10000 nM
12,"Cc1ccc(NC(=O)Nc2cccc(C(F)(F)F)c2)cc1S(=O)(=O)Nc1ccc2cc[nH]c2c1 [Compound 316, N-(1H-indol-6-yl)-2-methyl-5-(3-(3-(trifluoromethyl)phenyl)ureido)benzenesulfonamide]",1000 to 10000 nM
13,CCc1cccc(NC(=O)Nc2ccc(C)c(S(=O)(=O)Nc3ccc(Cl)cc3)c2)c1 [Compound 251],1000 to 10000 nM
14,Cc1ccc(NC(=O)Nc2ccc(F)c(Cl)c2)cc1S(=O)(=O)Nc1ccccc1 [Compound 209],1000 to 10000 nM
15,Cc1ccc(NC(=O)Nc2cccc(C(F)(F)F)c2)cc1S(=O)(=O)Nc1cccc(CCc2ccccc2)c1 [Compound 314],1000 to 10000 nM
16,Cc1ccc(NC(=O)Nc2cccc(C(F)(F)F)c2)cc1S(=O)(=O)Nc1ccc(-c2nn[nH]n2)cc1 [Compound 322],1000 to 10000 nM

# Next, values leading:
row,IC50,Molecule
1,1000 to 10000 nM,Cc1ccc(NC(=O)Nc2ccc(C)c(S(=O)(=O)Nc3ccc(Cl)cc3)c2)cc1Cl [Compound 235]
2,1000 to 10000 nM,Cc1cc(NC(=O)Nc2ccc(C)c(S(=O)(=O)Nc3ccc(Cl)cc3)c2)ccc1Br [Compound 237]
3,1000 to 10000 nM,Cc1ccc(NC(=O)Nc2ccccc2Br)cc1S(=O)(=O)Nc1ccc(Cl)cc1 [Compound 216]
4,1000 to 10000 nM,Cc1ccc(NC(=O)Nc2cccc(C(F)(F)F)c2)cc1S(=O)(=O)Nc1ccc(C(=O)O)cc1 [Compound 312]
5,1000 to 10000 nM,Cc1ccc(NC(=O)Nc2cccc(C(F)(F)F)c2)cc1S(=O)(=O)Nc1ccc(F)cc1 [Compound 297]
6,1000 to 10000 nM,COc1ccc(OC)c(NC(=O)Nc2ccc(C)c(S(=O)(=O)Nc3ccc(Cl)cc3)c2)c1 [Compound 268]
7,1000 to 10000 nM,Cc1ccc(NC(=O)Nc2ccccc2F)cc1S(=O)(=O)Nc1ccc(Cl)cc1 [Compound 218]
8,1000 to 10000 nM,Cc1ccc(NC(=O)NCc2ccccc2F)cc1S(=O)(=O)Nc1ccc(Cl)cc1 [Compound 278]
9,1000 to 10000 nM,Cc1ccc(NC(=O)Nc2cccc(C(F)(F)F)c2)cc1S(=O)(=O)Nc1cccc(F)c1 [Compound 296]
10,1000 to 10000 nM,COc1ccc(Cl)cc1NC(=O)Nc1ccc(C)c(S(=O)(=O)Nc2ccc(Cl)cc2)c1 [Compound 270]
11,≤ 1000 nM,"Cc1ccc(NC(=O)Nc2cccc(C(F)(F)F)c2)cc1S(=O)(=O)Nc1ccc(O)cc1 [Compound 304, N-(4-hydroxyphenyl)-2-methyl-5-(3-(3-(trifluoromethyl)phenyl)ureido)benzenesulfonamide]"
12,1000 to 10000 nM,"Cc1ccc(NC(=O)Nc2ccc(C(F)(F)F)cc2)cc1S(=O)(=O)Nc1ccc(Cl)cc1 [Compound 222, N-(4-chlorophenyl)-2-methyl-5-(3-(4-(trifluoromethyl)phenyl)ureido)benzenesulfonamide]"
13,1000 to 10000 nM,Cc1ccc(NC(=O)Nc2ccc(F)c(Cl)c2)cc1S(=O)(=O)Nc1ccc(Cl)cc1 [Compound 228]
14,1000 to 10000 nM,Cc1ccc(F)cc1NC(=O)Nc1ccc(C)c(S(=O)(=O)Nc2ccc(Cl)cc2)c1 [Compound 241]
15,1000 to 10000 nM,Cc1cc(F)ccc1NS(=O)(=O)c1cc(NC(=O)Nc2cccc(C(F)(F)F)c2)ccc1C [Compound 298]
16,1000 to 10000 nM,Cc1ccc(NC(=O)Nc2ccc(Br)cc2Cl)cc1S(=O)(=O)Nc1ccc(Cl)cc1 [Compound 227]

row,IC50,Molecule
1,1000 to 10000 nM,Cc1ccc(NC(=O)Nc2cc(C(F)(F)F)ccc2F)cc1S(=O)(=O)Nc1ccc(Cl)cc1 [Compound 233]
2,1000 to 10000 nM,Cc1ccc(NC(=O)Nc2ccc(C(C)(C)C)cc2)cc1S(=O)(=O)Nc1ccc(Cl)cc1 [Compound 256]
3,1000 to 10000 nM,Cc1ccc(NC(=O)Nc2ccc([N+](=O)[O-])cc2Cl)cc1S(=O)(=O)Nc1ccc(Cl)cc1 [Compound 244]
4,1000 to 10000 nM,Cc1ccc(NC(=O)Nc2ccc(C(F)(F)F)cc2Cl)cc1S(=O)(=O)Nc1ccc(Cl)cc1 [Compound 231]
5,1000 to 10000 nM,Cc1ccc(NC(=O)Nc2cccc([N+](=O)[O-])c2C)cc1S(=O)(=O)Nc1ccc(Cl)cc1 [Compound 264]
6,1000 to 10000 nM,Cc1ccc(NC(=O)Nc2ccc(F)cc2[N+](=O)[O-])cc1S(=O)(=O)Nc1ccc(Cl)cc1 [Compound 245]
7,1000 to 10000 nM,Cc1cc(Br)ccc1NC(=O)Nc1ccc(C)c(S(=O)(=O)Nc2ccc(Cl)cc2)c1 [Compound 238]
8,1000 to 10000 nM,Cc1ccc(NC(=O)Nc2cccc(C(F)(F)F)c2)cc1S(=O)(=O)Nc1ccccc1F [Compound 295]
9,1000 to 10000 nM,Cc1ccc(NC(=O)Nc2c(C)cccc2Cl)cc1S(=O)(=O)Nc1ccc(Cl)cc1 [Compound 234]
10,1000 to 10000 nM,"Cc1ccc(NC(=O)Nc2ccc(OC(F)(F)F)cc2)cc1S(=O)(=O)Nc1ccc(Cl)cc1 [Compound 225, N-(4-chlorophenyl)-2-methyl-5-(3-(4-(trifluoromethoxy)phenyl)ureido)benzenesulfonamide]"
11,1000 to 10000 nM,Cc1ccc(NC(=O)Nc2cccc(Cl)c2)cc1S(=O)(=O)Nc1ccc(Cl)cc1 [Compound 215]
12,1000 to 10000 nM,Cc1ccc(NC(=O)Nc2ccc(F)cc2F)cc1S(=O)(=O)Nc1ccc(Cl)cc1 [Compound 229]
13,1000 to 10000 nM,CSc1cccc(NC(=O)Nc2ccc(C)c(S(=O)(=O)Nc3ccc(Cl)cc3)c2)c1 [Compound 273]
14,1000 to 10000 nM,Cc1ccc(NC(=O)Nc2ccc(F)c(F)c2)cc1S(=O)(=O)Nc1ccc(Cl)cc1 [Compound 230]
15,1000 to 10000 nM,Cc1ccc(NC(=O)Nc2ccccc2OC(F)(F)F)cc1S(=O)(=O)Nc1ccc(Cl)cc1 [Compound 224]
